Results reported in patent publication US20030224978A1, “Compounds and methods for modulating apoptosis” (McGill University, priority 1996, published 2003).

Tests used:
Type in all cases: cell-based
[1] = test system: 3T3 cells not expressing N-cadherin, N-CAM, or L1 (control cells); test: Neurite outgrowth of mouse cerebellar neurons on control 3T3 cells (Example 2); conditions: 500 μg/ml
Protocol: Neurons were cultured on monolayers of 3T3 cells transfected with cDNA encoding N-cadherin essentially as described by Doherty and Walsh, Curr. Op. Neurobiol. 4:49-55, 1994; Williams et al., Neuron 13:583-594, 1994; Hall et al., Cell Adhesion and Commun. 3:441-450, 1996; Doherty and Walsh, Mol. Cell. Neurosci. 8:99-111, 1994; Safell et al., Neuron 18:231-242, 1997. Briefly, monolayers of control 3T3 fibroblasts and 3T3 fibroblasts that express N-cadherin were established by overnight culture of 80,000 cells in individual wells of an 8-chamber well tissue culture slide. 3000 cerebellar neurons isolated from post-natal day 3 mouse brains were cultured for 18 hours on the various monolayers in control media (SATO/2%FCS), or media supplemented with various concentrations of the cyclic peptide N-Ac-CHAVC-NH2 (SEQ ID NO:10) or a control peptide without the HAV sequence (N-Ac-CHGVC-NH2 (SEQ ID NO:20)). The cultures were then fixed and stained for GAP43 which specifically binds to the neurons and their neurites. The length of the longest neurite on each GAP43 positive neuron was then measured by computer assisted morphometry.

[2] = molecular target: T1, N-CAM (Homo sapiens, UniProt P13591); test: Neurite outgrowth of mouse cerebellar neurons on 3T3 cells expressing N-CAM (Example 2); conditions: 500 μg/mL
T1 construct: expressed in transfected cells; host or cells: 3T3 cells

[3] = molecular target: L1 (Homo sapiens, UniProt P32004); test: Neurite outgrowth of mouse cerebellar neurons on 3T3 cells expressing L1 (Example 2); design: expressed in transfected cells; host or cells: 3T3 cells; conditions: 500 μg/mL
L1, sequence (P32004 20-1257): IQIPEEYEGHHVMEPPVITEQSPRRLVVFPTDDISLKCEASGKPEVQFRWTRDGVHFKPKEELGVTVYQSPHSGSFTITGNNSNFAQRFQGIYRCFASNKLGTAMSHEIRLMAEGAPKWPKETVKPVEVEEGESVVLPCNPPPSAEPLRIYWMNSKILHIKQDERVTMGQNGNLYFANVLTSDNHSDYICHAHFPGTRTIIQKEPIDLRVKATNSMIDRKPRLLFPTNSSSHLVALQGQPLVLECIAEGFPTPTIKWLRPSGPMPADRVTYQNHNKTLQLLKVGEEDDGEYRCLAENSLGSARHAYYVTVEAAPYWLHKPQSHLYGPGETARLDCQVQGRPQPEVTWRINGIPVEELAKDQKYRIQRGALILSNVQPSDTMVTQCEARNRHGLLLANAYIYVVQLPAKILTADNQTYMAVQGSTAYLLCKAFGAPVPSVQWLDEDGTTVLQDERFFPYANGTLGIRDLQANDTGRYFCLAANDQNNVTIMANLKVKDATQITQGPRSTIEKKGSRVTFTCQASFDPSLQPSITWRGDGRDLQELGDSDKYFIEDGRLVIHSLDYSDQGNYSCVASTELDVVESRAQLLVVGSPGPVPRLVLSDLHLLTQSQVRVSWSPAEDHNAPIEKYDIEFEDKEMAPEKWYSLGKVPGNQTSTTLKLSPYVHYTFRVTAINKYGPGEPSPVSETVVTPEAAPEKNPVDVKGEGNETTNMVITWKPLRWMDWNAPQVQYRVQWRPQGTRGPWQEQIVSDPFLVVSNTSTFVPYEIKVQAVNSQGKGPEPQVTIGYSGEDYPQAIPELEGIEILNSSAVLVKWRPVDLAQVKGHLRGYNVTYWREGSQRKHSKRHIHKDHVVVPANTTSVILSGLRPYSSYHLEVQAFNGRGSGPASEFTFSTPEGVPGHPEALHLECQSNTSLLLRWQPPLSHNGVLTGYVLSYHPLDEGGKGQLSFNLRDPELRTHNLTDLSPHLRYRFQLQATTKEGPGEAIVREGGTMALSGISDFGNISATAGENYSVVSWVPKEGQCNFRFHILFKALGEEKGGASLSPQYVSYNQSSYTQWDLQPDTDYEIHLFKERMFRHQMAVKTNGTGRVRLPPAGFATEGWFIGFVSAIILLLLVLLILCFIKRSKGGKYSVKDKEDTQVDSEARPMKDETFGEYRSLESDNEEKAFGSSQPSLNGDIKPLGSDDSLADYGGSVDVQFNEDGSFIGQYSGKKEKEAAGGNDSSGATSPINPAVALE

T1 sequence (P13591 20-858, species assumed): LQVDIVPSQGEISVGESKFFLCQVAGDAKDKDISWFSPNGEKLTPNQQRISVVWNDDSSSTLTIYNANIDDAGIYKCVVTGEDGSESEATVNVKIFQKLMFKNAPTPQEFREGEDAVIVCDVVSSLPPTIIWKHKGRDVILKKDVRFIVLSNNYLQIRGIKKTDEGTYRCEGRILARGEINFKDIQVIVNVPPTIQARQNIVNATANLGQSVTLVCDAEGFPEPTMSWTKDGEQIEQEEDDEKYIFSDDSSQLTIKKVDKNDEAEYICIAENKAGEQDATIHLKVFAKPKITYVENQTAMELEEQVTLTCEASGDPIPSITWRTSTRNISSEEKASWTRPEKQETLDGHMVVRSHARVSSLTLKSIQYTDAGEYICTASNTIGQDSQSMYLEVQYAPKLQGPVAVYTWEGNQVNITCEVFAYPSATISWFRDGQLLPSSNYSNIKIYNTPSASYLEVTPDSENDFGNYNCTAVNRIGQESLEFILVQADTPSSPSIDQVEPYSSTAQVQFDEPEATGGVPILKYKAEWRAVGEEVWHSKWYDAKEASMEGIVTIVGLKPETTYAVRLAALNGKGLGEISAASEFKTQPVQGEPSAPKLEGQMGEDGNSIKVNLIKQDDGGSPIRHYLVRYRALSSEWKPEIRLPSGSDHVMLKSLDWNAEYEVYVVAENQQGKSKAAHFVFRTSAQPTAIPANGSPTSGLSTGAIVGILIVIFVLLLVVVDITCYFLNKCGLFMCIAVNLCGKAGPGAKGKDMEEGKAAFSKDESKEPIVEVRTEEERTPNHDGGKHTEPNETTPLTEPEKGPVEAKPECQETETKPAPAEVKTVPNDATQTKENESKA

- effect on neurite outgrowth on 3T3 cells expressing N-CAM [2]: did not inhibit neurite outgrowth
- effect on neurite outgrowth on 3T3 cells expressing L1 [3]: did not inhibit neurite outgrowth
SMILES: CC(=O)N[C@H]1CSSC[C@@H](C(N)=O)NC(=O)[C@H](C(C)C)NC(=O)[C@H](C)NC(=O)[C@H](Cc2c[nH]cn2)NC1=O [N-Ac-CHAVC-NH2, N-Ac-Cys-His-Ala-Val-Cys-NH2]
- effect on neurite outgrowth on control 3T3 cells [1]: did not inhibit neurite outgrowth
